Earlier results on one compound are cited in PMC11944884, “Bioactive Secondary Metabolites of Two Chinese Edible Boletes, Phlebopus portentosus and Butyriboletus roseoflavus” (Molecules, 2025).

In this data set the test system is head domain of HA. As to conditions: molecular docking, ref [56]; cited from earlier work.

In the case of `CC[C@H](CC[C@@H](C)[C@H]1CC[C@H]2[C@@H]3CC=C4C[C@@H](O)CC[C@]4(C)[C@H]3CC[C@]12C)C(C)C` [β-sitosterol], the “binding affinity to the head domain of HA” value is reported as “highest binding affinity”.
